Measured values: patent US20060153933A1 (priority 2002, published 2006)
Where two headings read alike, the source gives them in different places.

Experiments:
Format in all cases: in vivo
[1] = test system: Plasmopara viticola (PLASVI); experiment: whole plant or invertebrate
[2] = test system: Phytophthora infestans (PHYTIN); experiment: whole plant or invertebrate; conditions: for pest or weed control at 1.85 ppm: read-out: % Disease Control (observed)
[3] = test system: Plasmopara viticola (PLASVI); conditions: 1DC
[4] = test system: Phytophthora infestans (PHYTIN); conditions: 1DC
[5] = Plasmopara viticola, 48 h, read-out: % Disease Control (observed), 2DP, 0.62 ppm alone
[6] = Phytophthora infestans, 24 h, read-out: % Disease Control (observed), 1DP, 5.56 ppm alone
[7] = Phytophthora infestans, 24 h, read-out: % Disease Control (observed), 1DP, 0.62 ppm alone
[8] = Plasmopara viticola, 48 h, read-out: % Disease Control (observed), 2DP, 1.85 ppm alone
[9] = PLASVI 2DP, applied alone at 5.56 ppm
[10] = PHYTIN 2DP, applied alone at 5.56 ppm

Molecule: [Cl-].[Cu+2].[Cu+2].[OH-].[OH-].[OH-] [Cu oxychloride, copper oxychloride]
- % Disease Control (Observed) ([1]; PLASVI 6DP, applied alone at 38.3 ppm): 3.5%
- % Disease Control (Observed) ([2]; 3DP, 5.56 ppm alone): 17.5%
- % Disease Control (Observed) ([2]; 3DP, 16.70 ppm alone): 24.6%
- % Disease Control (Observed) ([2]; PHYTIN 6DP, applied alone at 12.8 ppm): 0%
- % Disease Control (Observed) ([2]; PHYTIN 6DP, applied alone at 38.3 ppm): 22.8%
- % Disease Control (Observed) ([2]; Table 10, PHYTIN (3DP) as printed, 16.70 ppm alone): 7.0%

Molecule: CO/C=C(/C(=O)OC)c1ccccc1Oc1cc(Oc2ccccc2C#N)ncn1 [Azoxystrobin, azoxystrobin]
- % Disease Control (Observed) ([1]; 3DP, 1.85 ppm alone): 28.1%
- % Disease Control (Observed) ([1]; 3DP, 5.56 ppm alone): 59.6%
- % Disease Control (Observed) ([2]; 3DP, 5.56 ppm alone): 33.3%

Molecule: COC(=O)N(OC)c1ccccc1COc1ccn(-c2ccc(Cl)cc2)n1 [Pyraclostrobin, pyraclostrobin]
- pest or weed control at 1.85 ppm ([1]; Plasmopara viticola, 24 h, read-out: % Disease Control (observed), 1DP, Table 14, 1.85 ppm alone): 0%
- pest or weed control at 5.56 ppm ([1]; Plasmopara viticola, 24 h, read-out: % Disease Control (observed), 1DP, Table 14, 5.56 ppm alone): 0%
- pest or weed control at 0.62 ppm [1, 5]: 61.4%
- pest or weed control at 1.85 ppm ([2]; Phytophthora infestans, 48 h): 78.9%
- pest or weed control at 5.56 ppm ([2]; Phytophthora infestans, 48 h, read-out: % Disease Control (observed), 2DP, 5.56 ppm alone): 89.5%

Molecule: mancozeb
- % Disease Control (Observed) ([1]; 1DP, 2.7 ppm alone): 14%
- % Disease Control (Observed) ([1]; 1DP, 8.0 ppm alone): 33.3%
- % Disease Control (Observed) ([1]; 4DP, 1.9 ppm alone): 0%
- % Disease Control (Observed) ([1]; 4DP, 16.7 ppm alone): 12.3%
- % Disease Control (Observed) ([1]; PLASVI 3DP, applied alone at 8.9 ppm): 17.5%
- % Disease Control (Observed) ([2]; 4DP, 0.60 ppm alone): 5.3%
- % Disease Control (Observed) ([2]; 4DP, 1.9 ppm alone): 8.8%
- % Disease Control (Observed) ([2]; 4DP, 5.6 ppm alone): 26.3%
- % Disease Control (Observed) ([2]; 4DP, 16.70 ppm alone): 40.4%
- % Disease Control (Observed) ([2]; PHYTIN 3DP, applied alone at 8.9 ppm): 5.3%

Molecule: Cc1ccc(C(C)NC(=O)[C@@H](NC(=O)OC(C)C)C(C)C)cc1 (some centres unmarked) [Iprovalicarb, iprovalicarb]
- % Disease Control (Observed) ([1]; 3DP, 1.85 ppm alone): 8.8%
- % Disease Control (Observed) ([1]; 3DP, 5.56 ppm alone): 26.3%
- % Disease Control (Observed) ([3]; 5.56 ppm alone): 40.0%
- % Disease Control (Observed) ([3]; 16.70 ppm alone): 50.0%
- % Disease Control (Observed) ([2]; 3DP, 5.56 ppm alone): 1.8%
- % Disease Control (Observed) ([2]; 3DP, 16.70 ppm alone): 33.3%

Molecule: O=C1C2CC=CCC2C(=O)N1SC(Cl)(Cl)Cl (centres unmarked) [Captan, captan]
- pest or weed control at 5.56 ppm [2, 6]: 0%

Molecule: Cc1ccc(-c2c(Cl)nc(C#N)n2S(=O)(=O)N(C)C)cc1 [Cyazofamid, cyazofamid]
- pest or weed control at 0.62 ppm ([1]; Plasmopara viticola, 72 h, read-out: % Disease Control (observed), 3DP, 0.62 ppm alone): 7%
- pest or weed control at 0.62 ppm ([2]; Phytophthora infestans, 72 h, read-out: % Disease Control (observed), 3DP, 0.62 ppm alone): 82.5%

Molecule: CCC(C)(NC(=O)c1cc(Cl)c(C)c(Cl)c1)C(=O)CCl (centres unmarked) [Zoxamide, zoxamide]
- % Disease Control (Observed) ([1]; 4DP, 1.90 ppm alone): 5.30%
- % Disease Control (Observed) ([1]; 4DP, 5.60 ppm alone): 57.90%
- % Disease Control (Observed) ([1]; PLASVI 2DP, applied alone at 0.4 ppm): 3.5%
- % Disease Control (Observed) ([1]; PLASVI 2DP, applied alone at 1.1 ppm): 21.1%
- % Disease Control (Observed) ([1]; PLASVI 2DP, applied alone at 3.3 ppm): 36.8%
- % Disease Control (Observed) ([1]; PLASVI 3DP, applied alone at 0.4 ppm): 3.5%
- % Disease Control (Observed) ([1]; PLASVI 3DP, applied alone at 1.1 ppm): 17.5%
- % Disease Control (Observed) ([1]; PLASVI 6DP, applied alone at 3.3 ppm): 10.5%
- % Disease Control (Observed) ([2]; 4DP, 1.90 ppm alone): 55.30%
- % Disease Control (Observed) ([2]; 4DP, 11.20 ppm alone): 19.30%
- % Disease Control (Observed) ([2]; 4DP, 16.70 ppm alone): 34.90%
- % Disease Control (Observed) ([2]; PHYTIN 2DP, applied alone at 0.4 ppm): 1.8%
- % Disease Control (Observed) ([2]; PHYTIN 2DP, applied alone at 1.1 ppm): 14%
- % Disease Control (Observed) ([2]; PHYTIN 3DP, applied alone at 1.1 ppm): 10.5%
- % Disease Control (Observed) ([2]; PHYTIN 6DP, applied alone at 1.1 ppm): 7%
- % Disease Control (Observed) ([2]; PHYTIN 6DP, applied alone at 3.3 ppm): 40.4%

Molecule: COCC(=O)N(c1c(C)cccc1C)N1CCOC1=O [Oxadixyl, oxadixyl]
- pest or weed control at 0.2 ppm ([1]; Plasmopara viticola, 24 h, read-out: % Disease Control (observed), 1DP, 0.20 ppm alone (Formula III 0.00 ppm)): 19.3%
- pest or weed control at 0.62 ppm [2, 7]: 0%
- pest or weed control at 1.9 ppm ([2]; Phytophthora infestans, 24 h, read-out: % Disease Control (observed), 1DP, 1.90 ppm alone): 24.6%

Molecule: N#Cc1c(Cl)c(Cl)c(Cl)c(C#N)c1Cl [Chlorothalonil, chlorothalonil]
- pest or weed control at 1.85 ppm ([1]; Plasmopara viticola, 24 h, read-out: % Disease Control (observed), 1DP, 1.85 ppm alone): 0%
- pest or weed control at 5.56 ppm [2, 6]: 0%

Molecule: [Cu+2].[OH-].[OH-] [Cu(OH)2, copper hydroxide]
- % Disease Control (Observed) ([1]; 3DP, 16.70 ppm alone): 10.5%
- % Disease Control (Observed) ([2]; 3DP, 5.56 ppm alone): 14.0%

Molecule: CCNc1nc(CC)c(C(=O)NC(C#N)c2cccs2)s1 (centres unmarked) [Ethaboxam, ethaboxam]
- % Disease Control (Observed) ([1]; 2DP, 1.85 ppm alone): 50.9%
- % Disease Control (Observed) ([1]; 2DP, 5.56 ppm alone): 78.9%
- % Disease Control (Observed) ([2]; 2DP, 0.62 ppm alone): 10.5%

Molecule: COCC(=O)N(c1c(C)cccc1C)C(C)C(=O)OC (centres unmarked) [Metalaxyl, metalaxyl]
- pest or weed control at 1.9 ppm ([1]; Plasmopara viticola, 72 h, read-out: % Disease Control (observed), 3DP, 1.90 ppm alone): 15.8%
- pest or weed control at 5.6 ppm ([1]; Plasmopara viticola, 72 h, read-out: % Disease Control (observed), 3DP, 5.60 ppm alone): 21.1%
- pest or weed control at 5.56 ppm [2, 6]: 0%

Molecule: O=C1c2ccccc2C(=O)N1SC(Cl)(Cl)Cl [Folpet, folpet]
- % Disease Control (Observed) ([1]; PLASVI 2DP, applied alone at 4.3 ppm): 1.8%
- % Disease Control (Observed) ([1]; PLASVI 2DP, applied alone at 12.8 ppm): 22.8%
- pest or weed control at 5.56 ppm ([1]; Plasmopara viticola, 24 h, read-out: % Disease Control (observed), 1DP, 5.56 ppm alone): 0%
- % Disease Control (Observed) ([2]; PHYTIN 2DP, applied alone at 4.3 ppm): 1.8%
- % Disease Control (Observed) ([2]; PHYTIN 2DP, applied alone at 12.8 ppm): 5.3%
- pest or weed control at 0.62 ppm [2, 7]: 0%

Molecule: CON=C(C(=O)OC)c1ccccc1CON=C(C)c1cccc(C(F)(F)F)c1 [Trifloxystrobin, trifloxystrobin]
- pest or weed control at 0.62 ppm [1, 5]: 1.8%
- pest or weed control at 1.85 ppm [1, 8]: 21.1%
- pest or weed control at 1.85 ppm ([2]; Phytophthora infestans, 48 h): 24.6%

Molecule: CCCOC(=O)NCCCN(C)C [Propamocarb, propamocarb]
- pest or weed control at 5.56 ppm ([1]; Plasmopara viticola, 48 h, read-out: % Disease Control (observed), 2DP, 5.56 ppm alone): 0%
- pest or weed control at 1.85 ppm ([2]; Phytophthora infestans, 48 h): 1.8%
- pest or weed control at 0.62 ppm ([2]; Phytophthora infestans, 48 h, read-out: % Disease Control (observed), 2DP, 0.62 ppm alone): 0%

Molecule: O=[N+]([O-])c1cc(C(F)(F)F)c(Cl)c([N+](=O)[O-])c1Nc1ncc(C(F)(F)F)cc1Cl [Fluazinam, fluazinam]
- pest or weed control at 1.85 ppm [1, 8]: 14%
- pest or weed control at 1.85 ppm ([2]; Phytophthora infestans, 72 h): 12.3%
- pest or weed control at 5.56 ppm ([2]; Phytophthora infestans, 72 h, read-out: % Disease Control (observed), 3DP, 5.56 ppm alone): 50.9%

Molecule: CO/C=C(/C(=O)OC)c1ccccc1COc1cccc(C(F)(F)F)n1 [Picoxystrobin, picoxystrobin]
- % Disease Control (Observed) ([1]; 3DP, 5.56 ppm alone): 61.4%
- % Disease Control (Observed) ([2]; 3DP, 5.56 ppm alone): 59.6%

Molecule: COC(=O)CC(NC(=O)[C@@H](NC(=O)OC(C)C)C(C)C)c1ccc(Cl)cc1 (mixture of isomers) [Compound 1, methyl (±)RS-[3-(N-isopropoxycarbonyl-S-valinyl)amino]-3-(4-chlorophenyl)propanoate]
- % Disease Control (Observed) ([1]; 2DP, 1.85 ppm alone): 5.3%
- % Disease Control (Observed) ([2]; 2DP, 0.62 ppm alone): 7.0%
- % Disease Control (Observed) ([2]; in vivo): 40.4%

Molecule: CC(C)OC(=O)N[C@H](C(=O)N[C@H](C)c1nc2ccc(F)cc2s1)C(C)C [Benthivalicarb, benthivalicarb]
- % Disease Control (Observed) ([1]; 1DP, 0.62 ppm alone): 57.9%
- % Disease Control (Observed) ([2]; 1DP, 0.62 ppm alone): 31.6%
- % Disease Control (Observed) ([4]; 0.62 ppm alone): 28.1%

Molecule: COC(=O)C(C)N(C(=O)Cc1ccccc1)c1c(C)cccc1C (centres unmarked) [Benalaxyl, benalaxyl]
- % Disease Control (Observed) ([3]; 0.60 ppm alone): 24.6%
- % Disease Control (Observed) ([4]; 1.90 ppm alone): 8.8%
- % Disease Control (Observed) ([4]; 16.70 ppm alone): 12.3%

Molecule: Maneb
- % Disease Control (Observed) ([1]; PLASVI 3DP, applied alone at 16.70 ppm): 24.6%
- % Disease Control (Observed) ([2]; PHYTIN 3DP, applied alone at 5.56 ppm): 14.0%
- % Disease Control (Observed) ([2]; in vivo): 3.5%

Molecule: CC[C@H](CS(=O)(=O)[C@@H](C)c1ccc(C#N)cc1)NC(=O)Oc1ccc(F)cc1 [Formula IIIa, 4-fluorophenyl(1S)-1-({[(1S)-1-(4-cyanophenyl)ethyl]sulfonyl}methyl) propylcarbamate]
- % Disease Control (Observed) ([1]; 4DP, 1.9 ppm alone): 14.0%
- % Disease Control (Observed) ([1]; 4DP, 1.90 ppm alone): 14.00%
- % Disease Control (Observed) ([1]; 4DP, 2.8 ppm alone): 76.3%
- % Disease Control (Observed) ([2]; 4DP, 0.3 ppm alone): 19.3%
- % Disease Control (Observed) ([2]; 4DP, 0.60 ppm alone): 10.50%
- % Disease Control (Observed) ([2]; 4DP, 0.9 ppm alone): 73.7%
- % Disease Control (Observed) ([2]; 4DP, 1.9 ppm alone): 78.9%
- % Disease Control (Observed) ([2]; 4DP, 1.90 ppm alone): 78.90%

Molecule: Propineb
- % Disease Control (Observed) [1, 9]: 0.0%
- % Disease Control (Observed) [2, 10]: 0.0%

Molecule: CCO[PH](=O)O [Fosetyl-Al, fosetyl-Al]
- % Disease Control (Observed) ([1]; 7DP, 1.85 ppm alone): 8.8%
- % Disease Control (Observed) ([1]; 7DP, 5.56 ppm alone): 10.5%
- % Disease Control (Observed) ([1]; 7DP, 16.70 ppm alone): 12.3%
- % Disease Control (Observed) ([1]; PLASVI 6DP, applied alone at 33.3 ppm): 0%
- % Disease Control (Observed) ([2]; PHYTIN 6DP, applied alone at 11.1 ppm): 0%
- % Disease Control (Observed) ([2]; PHYTIN 6DP, applied alone at 33.3 ppm): 0%
- % Disease Control (Observed) ([2]; in vivo): 0.0%

Molecule: C[C@@]1(c2ccc(Oc3ccccc3)cc2)OC(=O)N(Nc2ccccc2)C1=O (racemic) [Famoxadone, famoxadone]
- pest or weed control at 1.85 ppm [1, 8]: 31.6%
- pest or weed control at 1.85 ppm ([2]; Phytophthora infestans, 48 h): 47.4%

Molecule: Metiram
- % Disease Control (Observed) ([1]; PLASVI 2DP, applied alone at 1.85 ppm): 5.3%
- % Disease Control (Observed) [1, 9]: 8.8%
- % Disease Control (Observed) [2, 10]: 0.0%
